What follows are compounds tested against T1, B1R receptor of the rat (CHO K1 cells stably transfected with the B1R gene of the rat) (Rattus norvegicus, UniProt P97583) (assay: Functional study on the bradykinin receptor 1 (B1R), Ca2+ fluorescence (Fluo-4) FLIPR/Novostar assay, rB1R cells). Conditions: CHO-K1, 10 μM, library compounds CC_H, read-out: % Inhibition (r-B1R) at 10 μM.
T1 construct: expressed in transfected cells; host or cells: CHO K1 cells (Chinese hamster ovary), stably transfected
T1 sequence (P97583 1-337): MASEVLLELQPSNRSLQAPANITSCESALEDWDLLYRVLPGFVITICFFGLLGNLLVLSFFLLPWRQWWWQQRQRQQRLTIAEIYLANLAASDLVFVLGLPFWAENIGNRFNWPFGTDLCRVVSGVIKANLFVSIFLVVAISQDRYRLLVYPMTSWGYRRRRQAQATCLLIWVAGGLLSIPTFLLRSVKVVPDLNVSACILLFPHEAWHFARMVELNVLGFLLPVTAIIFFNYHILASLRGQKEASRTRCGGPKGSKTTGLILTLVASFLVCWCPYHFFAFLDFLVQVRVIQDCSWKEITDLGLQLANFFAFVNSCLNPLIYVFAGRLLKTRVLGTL
Format: cell-based
How it was run: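 Stably transfected CHO K1 cells carrying human or rat B1R were Fluo-4 loaded and Ca2+ fluorescence read by FLIPR or Novostar. Compounds were added first at 10 μM for % activation, then the EC80 agonist was applied after 6-20 min (human: Lys-Des-Arg9-bradykinin; rat: Des-Arg9-bradykinin). % inhibition is relative to maximum achievable inhibition, and IC50 comes from concentration series.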

SMILES | inhibition at 10 µM [%]
CN(C(=O)c1ccc2c(c1)C(NC(=O)c1ccccc1Cl)CC2)C1CCN(c2ccnc(S(C)(=O)=O)n2)CC1 (stereo not drawn) [CC_H-609, 3-[(2-Chloro-benzoyl)amino]-N-methyl-N-[1-(2-methylsulfonyl-pyrimidin-4-yl)-piperidin-4-yl]-2,3-dihydro-1H-indene-5-carboxylic acid amide] | 102
CN(C(=O)c1ccc2c(c1)C(NC(=O)c1cccnc1C(F)(F)F)CC2)C1CCN(c2ccnc(C3CC3)n2)CC1 (stereo not drawn) [CC_H-610, N-[6-[[1-(2-Cyclopropyl-pyrimidin-4-yl)-piperidin-4-yl]-methyl-carbamoyl]-2,3-dihydro-1H-inden-1-yl]-2-(trifluoromethyl)-pyridine-3-carboxylic acid amide] | 101
CN(C(=O)c1ccc2c(c1)C(NC(=O)c1ccccc1Cl)CC2)C1CCN(c2ccnc(N3CCCC3)n2)CC1 (stereo not drawn) [CC_H-612, 3-[(2-Chloro-benzoyl)amino]-N-methyl-N-[1-(2-pyrrolidin-1-yl-pyrimidin-4-yl)-piperidin-4-yl]-2,3-dihydro-1H-indene-5-carboxylic acid amide] | 101
CN(C(=O)c1ccc2c(c1)C(NC(=O)CCC1CCCC1)CC2)C1CCN(c2ccnc(S(C)(=O)=O)n2)CC1 (stereo not drawn) [CC_H-613, 3-(3-Cyclopentyl-propanoylamino)-N-methyl-N-[1-(2-methylsulfonyl-pyrimidin-4-yl)-piperidin-4-yl]-2,3-dihydro-1H-indene-5-carboxylic acid amide] | 90
Cc1cc(N2CCC(N(C)C(=O)c3ccc4c(c3)C(NC(=O)c3ccccc3Cl)CC4)CC2)nc(N(C)C)n1 (stereo not drawn) [CC_H-614, 3-[(2-Chloro-benzoyl)amino]-N-[1-(2-dimethylamino-6-methyl-pyrimidin-4-yl)-piperidin-4-yl]-N-methyl-2,3-dihydro-1H-indene-5-carboxylic acid amide] | 101
CN(C)C(=O)c1cc(N2CCC(N(C)C(=O)c3ccc4c(c3)C(NC(=O)CCC3CCCC3)CC4)CC2)ccn1 (stereo not drawn) [CC_H-615, 4-[4-[[3-(3-Cyclopentyl-propanoylamino)-2,3-dihydro-1H-inden-5-carbonyl]-methyl-amino]-piperidin-1-yl]-N,N-dimethyl-pyridine-2-carboxylic acid amide] | 65
CN(C(=O)c1ccc2c(c1)C(NC(=O)c1ccccc1Cl)CC2)C1CCN(c2ccnc(C(C)(C)C)n2)CC1 (stereo not drawn) [CC_H-616, N-[1-(2-tert-Butyl-pyrimidin-4-yl)-piperidin-4-yl]-3-[(2-chloro-benzoyl)amino]-N-methyl-2,3-dihydro-1H-indene-5-carboxylic acid amide] | 101
Cc1ncc2n1C(=O)N(C1CCC(N(C)C(=O)c3ccc4c(c3)C(NC(=O)c3ccccc3Cl)CC4)CC1)C2 (stereo not drawn) [CC_H-618, 3-[(2-Chloro-benzoyl)amino]-N-methyl-N-[4-(5-methyl-3-oxo-1,2-dihydro-imidazo[5,1-e]imidazol-2-yl)-cyclohexyl]-2,3-dihydro-1H-indene-5-carboxylic acid amide] | 84
CN(C(=O)c1ccc2c(c1)C(NC(=O)CCC1CCCC1)CC2)C1CCN(c2ccnc(N3CCCC3)n2)CC1 (stereo not drawn) [CC_H-620, 3-(3-Cyclopentyl-propanoylamino)-N-methyl-N-[1-(2-pyrrolidin-1-yl-pyrimidin-4-yl)-piperidin-4-yl]-2,3-dihydro-1H-indene-5-carboxylic acid amide] | 102
CN(C(=O)c1ccc2c(c1)C(NC(=O)c1cccnc1C(F)(F)F)CC2)C1CCN(c2ncncc2F)CC1 (stereo not drawn) [CC_H-621, N-[6-[[1-(5-Fluoro-pyrimidin-4-yl)-piperidin-4-yl]-methyl-carbamoyl]-2,3-dihydro-1H-inden-1-yl]-2-(trifluoromethyl)-pyridine-3-carboxylic acid amide] | 98
Cc1cc(N2CCC(N(C)C(=O)c3ccc4c(c3)C(NC(=O)CCC3CCCC3)CC4)CC2)nc(N(C)C)n1 (stereo not drawn) [CC_H-622, 3-(3-Cyclopentyl-propanoylamino)-N-[1-(2-dimethylamino-6-methyl-pyrimidin-4-yl)-piperidin-4-yl]-N-methyl-2,3-dihydro-1H-indene-5-carboxylic acid amide] | 100
CN(C)c1nccc(N2CCC(N(C)C(=O)c3ccc4c(c3)C(NC(=O)c3ccccc3Cl)CC4)CC2)n1 (stereo not drawn) [CC_H-623, 3-[(2-Chloro-benzoyl)amino]-N-[1-(2-dimethylamino-pyrimidin-4-yl)-piperidin-4-yl]-N-methyl-2,3-dihydro-1H-indene-5-carboxylic acid amide] | 101
CN(C(=O)c1ccc2c(c1)C(NC(=O)CCC1CCCC1)CC2)C1CCN(c2ccnc(C(C)(C)C)n2)CC1 (stereo not drawn) [CC_H-624, N-[1-(2-tert-Butyl-pyrimidin-4-yl)-piperidin-4-yl]-3-(3-cyclopentyl-propanoylamino)-N-methyl-2,3-dihydro-1H-indene-5-carboxylic acid amide] | 96
CN(C(=O)c1ccc2c(c1)C(NC(=O)c1ccccc1Cl)CC2)C1CCN(c2ccnc(C3CC3)n2)CC1 (stereo not drawn) [CC_H-627, 3-[(2-Chloro-benzoyl)amino]-N-[1-(2-cyclopropyl-pyrimidin-4-yl)-piperidin-4-yl]-N-methyl-2,3-dihydro-1H-indene-5-carboxylic acid amide] | 100
CN(C(=O)c1ccc2c(c1)C(NC(=O)c1cccnc1C(F)(F)F)CC2)C1CCN(c2ccnnc2)CC1 (stereo not drawn) [CC_H-628, N-[6-[Methyl-(1-pyridazin-4-yl-piperidin-4-yl)-carbamoyl]-2,3-dihydro-1H-inden-1-yl]-2-(trifluoromethyl)-pyridine-3-carboxylic acid amide] | 99
CN(C)c1nccc(N2CCC(N(C)C(=O)c3ccc4c(c3)C(NC(=O)CCC3CCCC3)CC4)CC2)n1 (stereo not drawn) [CC_H-629, 3-(3-Cyclopentyl-propanoylamino)-N-[1-(2-dimethylamino-pyrimidin-4-yl)-piperidin-4-yl]-N-methyl-2,3-dihydro-1H-indene-5-carboxylic acid amide] | 101
CN(C(=O)c1ccc2c(c1)C(NC(=O)CCC1CCCC1)CC2)C1CCN(c2ccnc(C3CC3)n2)CC1 (stereo not drawn) [CC_H-630, 3-(3-Cyclopentyl-propanoylamino)-N-[1-(2-cyclopropyl-pyrimidin-4-yl)-piperidin-4-yl]-N-methyl-2,3-dihydro-1H-indene-5-carboxylic acid amide] | 95
CN(C(=O)c1ccc2c(c1)C(NC(=O)c1ccccc1Cl)CC2)C1CCN(c2ncncc2F)CC1 (stereo not drawn) [CC_H-631, 3-[(2-Chloro-benzoyl)amino]-N-[1-(5-fluoro-pyrimidin-4-yl)-piperidin-4-yl]-N-methyl-2,3-dihydro-1H-indene-5-carboxylic acid amide] | 94
CN(C(=O)c1ccc2c(c1)C(NC(=O)CCC1CCCC1)CC2)C1CCN(c2ncncc2F)CC1 (stereo not drawn) [CC_H-632, 3-(3-Cyclopentyl-propanoylamino)-N-[1-(5-fluoro-pyrimidin-4-yl)-piperidin-4-yl]-N-methyl-2,3-dihydro-1H-indene-5-carboxylic acid amide] | 95
CN(C(=O)c1ccc2c(c1)C(NC(=O)c1ccccc1Cl)CC2)C1CCN(c2ccnnc2)CC1 (stereo not drawn) [CC_H-633, 3-[(2-Chloro-benzoyl)amino]-N-methyl-N-(1-pyridazin-4-yl-piperidin-4-yl)-2,3-dihydro-1H-indene-5-carboxylic acid amide] | 103
CN(C(=O)c1ccc2c(c1)C(NC(=O)CCC1CCCC1)CC2)C1CCN(c2ccnnc2)CC1 (stereo not drawn) [CC_H-634, 3-(3-Cyclopentyl-propanoylamino)-N-methyl-N-(1-pyridazin-4-yl-piperidin-4-yl)-2,3-dihydro-1H-indene-5-carboxylic acid amide] | 93

Reference: US8680159B2, “Bradykinin 1 receptor modulating compounds” (Gruenenthal GmbH, priority 2010, dated 2014)
